From patent US6060518A, “Polymer compositions for chemotherapy and methods of treatment using the same” (Supratek Pharma Inc., priority 1996, dated 2000) come the findings set out here.

≈ marks a conversion by molar mass, not a printed value.

For test [1], the system named is Lewis Lung Carcinoma (3LL) Cell Line, subline H-59. Briefly: XTT cytotoxicity assay, Lewis Lung Carcinoma 3LL (H-59) cells. It counts as cell-based. As to conditions: Mus musculus, read-out: IC50, doxorubicin (concentration producing 50% inhibition of cell growth). How it is done:
A highly metastatic clonal Lewis Lung Carcinoma cell subline H-59 (3LL) was used to evaluate cytotoxic activity of Prep. C and compare it with that of doxorubicin. To this end, the cells were suspended in RPMI 1640 medium supplemented with 10% fetal calf serum, and plated at 2000-3000 cells/well into 96-well microtiter plates. Prep. C in which doxorubicin final concentrations varied from 1 to 10,000 ng/ml was added to the cells and incubated for 2 hours at 37° C. and 5% CO2. The cells were then washed three times with RPMI 1640 and cultured for 4 days. Drug cytotoxicity was determined by a standard XTT assay. To this end, sterile 1 mg/ml XTT solution in RPMI 1640 containing 5 μl/ml of 1.54 μg/ml phenazine methasulfate solution in sterile PBS was added to the cells (100 μl/well) and incubated for 4 to 16 hours at 37° C. and 5% CO2. The absorbance at λ420 was determined using a microplate reader. All the experiments were carried out in triplicate. SEM values were less than 10% (P<0.05). the concentrations of free doxorubicin and doxorubicin in Prep.

Test [2] concerns Lewis Lung Carcinoma (3LL-H59). The test can be described thus: Metastasis development after i.v. inoculation of 3LL-H59 cells. It counts as in vivo, Female C57BL/6 mice. To be noted: Dox 5.0 mg/kg, L61 0.25% w/v, PEG8000 1% w/v, Days 1, 4, 7, 10 animals per group.
Experimental: A highly metastatic clonal subline H59 of Lewis Lung, Carcinoma (3LL-H59) was used as a model. […] These cells were cultured in D-MEM supplemented with 10% FCS at 37° C. in a humidified atmosphere with 5% CO2. After 7 to 10 passes in culture, the cells in their logarithmic growth phase were harvested with trypsin for the following experiments.
Animals. Female C57BL/6 mice were obtained from Charles River Canada Inc. (St. Constant, Quebec, Canada) and used at 6 to 7 weeks of age. Animals were grouped five per cage with air filter cover under a light (12-h light/dark cycle, light on at 06h00) and temperature-controlled environment (22 ±1° C.). All manipulations of animals were performed under a sterilized laminar. The animals had ad libitum access to Purina Mouse Chow (Pro Lab PMH 4018, Trademark of Agway, Syracuse, N.Y.) and water. […]
At Day 16 after tumor inoculation, the animals were sacrificed and subjected to routine metastasis inspection. All organs were routinely screened, although metastatic formations were normally detected only in the lung. […] The data are expressed as means±SEM for the number of metastatic sites and as the percentage of the animals having metastasis for the incidence of metastasis development. Statistical significance was calculated according to the multiple range test of Duncan-Kramer. […]

Regarding `COc1cccc2c1C(=O)c1c(O)c3c(c(O)c1C2=O)C[C@@](O)(C(=O)CO)C[C@@H]3O[C@H]1C[C@H](N)[C@H](O)[C@H](C)O1` [Doxorubicin, doxorubicin], the IC50 in test [1] turned out to be 0.11 µg/mL (≈ 0.202 µM). Besides, in test [2] (Day 16), the “Incidence (animals having metastasis)” value was determined as 100%. For the same molecule, the “Number of metast. sites on lung periphery ±SEM” value in test [2] (counted Day 16) is reported as 8.90 ± 2.56.
